Reference: article PMC7501296, “Rapid and direct control of target protein levels with VHL-recruiting dTAG molecules” (Nature Communications, 2020)
“And” between values parts separate entries of the source, which are not always exact repeats. Equal entries are not always repeated.

Experiments:
Format in all cases: cell-based
CDK9 = molecular target: T1, CDK9 (Homo sapiens, UniProt P50750); test: Immunoblot, co-treatment with THAL-SNS-032 and/or dTAGV-1 in PATU-8902 LACZ-FKBP12F36V clone; conditions: co-treatment dTAGV-1 + THAL-SNS-032, 24 h
T1 construct: endogenous in cells; host or cells: PATU-8902 LACZ-FKBP12^F36V clone
Protocol: PATU-8902 LACZ-FKBP12^F36V and FKBP12^F36V-KRAS^G12V; KRAS^−/− cells and 293T cells were lysed with RIPA buffer supplemented with cOmplete protease inhibitors (Roche), PhosSTOP phosphatase inhibitors (Roche), and 0.1% benzonase (Novagen). Proteins were separated using NuPAGE Bolt^TM Bis–Tris gels (Thermo Fisher Scientific) and transferred to nitrocellulose membranes, which were blocked with Odyssey Blocking Buffer (LI-COR) and incubated with primary antibodies overnight. Membranes were washed three times with TBS-T, incubated with the appropriate fluorescently labeled infrared secondary antibodies, washed again three times with TBS-T, and assessed using an Odyssey CLx Imager (LI-COR)[6],[15]. EWS502 cells were lysed with Cell Lysis Buffer (Cell Signaling Technology) supplemented with cOmplete protease inhibitors (Roche). Proteins were separated using SDS-PAGE gels and transferred to PVDF membranes, which were blocked with 5% milk in TBS-T and incubated with primary antibodies overnight. Membranes were washed five times with TBS-T, incubated with the appropriate horseradish peroxidase-conjugated secondary antibodies, washed again five times with TBS-T, and imaged. The following primary antibodies were employed in this study: HA (Cell Signaling Technology #3724 and #2367, dilution at 1:1000), phospho-ERK1/2 T202/Y204 (Cell Signaling Technology #4370, dilution at 1:1000), ERK1/2 (Cell Signaling Technology #4696, dilution at 1:1000), phospho-AKT S473 (Cell Signaling Technology #4060, dilution at 1:1000), AKT (Cell Signaling Technology #2920, dilution at 1:1000), FKBP12 (Abcam #ab24373, dilution at 1:1000), GFP (Cell Signaling Technology #2555, dilution at 1:1000), FLI (Abcam #ab15289, dilution at 1:2000), NKX2-2 (Abcam #ab187375, dilution at 1:1000), GAPDH (Cell Signaling Technology #2118, dilution at 1:3000), Vinculin (Cell Signaling Technology #13901, dilution at 1:3000), β-Actin (Cell Signaling Technology #58169, dilution at 1:3000), and α-Tubulin (Cell Signaling Technology #3873, dilution at 1:5000). […]

[1] = tested on: PATU-8902 FKBP12^F36V-KRAS^G12V; KRAS^-/- clone; test: Antiproliferation, PATU-8902 FKBP12F36V-KRASG12V; KRAS-/- clone, 2D-monolayer (CellTiter-Glo)
[2] = tested on: PATU-8902 LACZ-FKBP12^F36V clone; test: Antiproliferation, PATU-8902 LACZ-FKBP12F36V clone, 2D-monolayer (CellTiter-Glo)
Procedure, shortened: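 Viability of cells grown as 2D-adherent monolayers was determined with the CellTiter-Glo luminescent reagent (Promega). Luminescence signals were read on either an Envision 2104 plate reader (PerkinElmer) or a Fluostar Omega Reader (BMG Labtech), and the resulting data were processed and analyzed in GraphPad PRISM v8 software.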

[3] = tested on: EWS502 FKBP12^F36V-EWS/FLI; EWS/FLI^−/− cells; test: Relative growth of EWS502 FKBP12F36V-EWS/FLI; EWS/FLI-/- cells (CellTiter-Glo); conditions: for Antiproliferation (relative growth): replicate values
Protocol: Cell viability was assayed in 2D-adherent or ultra-low adherent 3D-spheroids using CellTiter-Glo (Promega)[6],[15]. Luminescence was measured on an Envision 2104 plate reader (PerkinElmer) and Fluostar Omega Reader (BMG Labtech) and data was analyzed using GraphPad PRISM v8. Synergy assessments were performed using CellTiter-Glo (Promega) with the following modifications to the protocol described in the ref. [34]. In brief, EWS502 cells were plated at 1000 cells per well in 50 µL of appropriate media in 384-well white culture plates (Corning) allowed to adhere overnight, and 100 nL of compounds were added using a Janus Workstation pin tool (PerkinElmer) for 72 h. Cell viability was measured by addition of 10 µL of CellTiter-glo (Promega), followed by incubation for 15 minutes at room temperature. Luminescence was measured on an Envision 2104 plate reader (PerkinElmer) and data was analyzed using GraphPad PRISM v8.

FKBP12^F36V-EWS/FLI = test: Immunoblot of EWS502 FKBP12F36V-EWS/FLI; EWS/FLI-/- cells
Protocol: To generate 293T^WT FKBP12^F36V-KRAS^G12V and 293T^VHL−/− FKBP12^F36V-KRAS^G12V cells, concentrated lentiviral supernatants[6] were applied to 293T^WT and 293T^VHL−/− cells[33] in the presence of 4 µg mL^−1 polybrene and transduced cell lines were selected with 2 µg mL^−1 puromycin. To generate EWS502 FKBP12^F36V-GFP cells, EWS502 cells were transduced with pLEX_305-dTAG-GFP lentiviral supernatant and selected with 1 µg mL^−1 puromycin. To generate EWS502 FKBP12^F36V-EWS/FLI; EWS/FLI^−/− cells, EWS502 cells were co-transduced with pLEX_305-dTAG-EWS/FLI and lentiCRISPR v2-Blast-sgFLI_Ex9 lentiviral supernatants. Cells were then selected with both 1 µg mL^−1 puromycin (pLEX_305-dTAG-EWS/FLI) and 5 µg mL^−1 blasticidin (lentiCRISPR v2-Blast-sgFLI_Ex9). Knockout of endogenous EWS/FLI and the expression of exogenous FKBP12^F36V-EWS/FLI were confirmed by immunoblot and pooled transduced cell populations were employed for this study. PATU-8902 LACZ-FKBP12^F36V and FKBP12^F36V-KRAS^G12V; KRAS^−/− clones were also employed in this study.
PATU-8902 LACZ-FKBP12^F36V and FKBP12^F36V-KRAS^G12V; KRAS^−/− cells and 293T cells were lysed with RIPA buffer supplemented with cOmplete protease inhibitors (Roche), PhosSTOP phosphatase inhibitors (Roche), and 0.1% benzonase (Novagen). Proteins were separated using NuPAGE Bolt^TM Bis–Tris gels (Thermo Fisher Scientific) and transferred to nitrocellulose membranes, which were blocked with Odyssey Blocking Buffer (LI-COR) and incubated with primary antibodies overnight. Membranes were washed three times with TBS-T, incubated with the appropriate fluorescently labeled infrared secondary antibodies, washed again three times with TBS-T, and assessed using an Odyssey CLx Imager (LI-COR)[6],[15]. EWS502 cells were lysed with Cell Lysis Buffer (Cell Signaling Technology) supplemented with cOmplete protease inhibitors (Roche). Proteins were separated using SDS-PAGE gels and transferred to PVDF membranes, which were blocked with 5% milk in TBS-T and incubated with primary antibodies overnight. Membranes were washed five times with TBS-T, incubated with the appropriate horseradish peroxidase-conjugated secondary antibodies, washed again five times with TBS-T, and imaged. […]

With CC(C)(C)c1cnc(CSc2cnc(NC(=O)C3CCN(CC(=O)NCCOCCOCCOCCNc4cccc5c4C(=O)N(C4CCC(=O)NC4=O)C5=O)CC3)s2)o1 (stereo not shown) [THAL-SNS-032] the “Degradation of both LACZ-FKBP12F36V and CDK9 on co-treatment” value (CDK9) was “pronounced degradation”.

In the case of CC[C@H](C(=O)N1CCCC[C@H]1C(=O)O[C@H](CCc1ccc(OC)c(OC)c1)c1ccccc1OCC(=O)NCCOCCOCCOCC(=O)N[C@H](C(=O)N1C[C@H](O)C[C@H]1C(=O)N[C@@H](C)c1ccc(-c2scnc2C)cc1)C(C)(C)C)c1cc(OC)c(OC)c(OC)c1 [dTAG-63], the DMSO-normalized antiproliferation ([1]; log10[compound] (M) -4.69897) is reported as 1.902 and 1.7836 and 2.592 and 1.417, the DMSO-normalized antiproliferation ([1]; log10[compound] (M) -5.19897) is reported as 1.019 and 0.7215 and 1.043 and 0.8704 and the DMSO-normalized antiproliferation ([1]; log10[compound] (M) -5.69897) is reported as 18.9261 and 16.9894 and 19.5961 and 18.1242. The DMSO-normalized antiproliferation ([1]; log10[compound] (M) -6.19897) was 26.0652 and 23.4484 and 26.4223 and 22.5834, the DMSO-normalized antiproliferation ([1]; log10[compound] (M) -6.69897) was 29.8671 and 30.9365 and 33.7587 and 28.015 and the DMSO-normalized antiproliferation ([1]; log10[compound] (M) -7.19897) was 63.0328 and 57.9113 and 61.3608 and 60.3114. The DMSO-normalized antiproliferation ([1]; log10[compound] (M) -7.69897) was 91.5315 and 97.3637 and 98.717 and 90.5671, the DMSO-normalized antiproliferation ([1]; log10[compound] (M) -8.19897) was 103.715 and 106.791 and 102.663 and 104 and the DMSO-normalized antiproliferation ([1]; log10[compound] (M) -8.69897) was 99.9165 and 93.5571 and 104.512 and 109.434. For the same molecule, the DMSO-normalized antiproliferation ([1]; log10[compound] (M) -9.19897) was 108.333 and 105.196 and 111.04 and 104.691, the DMSO-normalized antiproliferation ([2]; log10[compound] (M) -4.69897) was 13.2737 and 12.6329 and 14.1104 and 10.912 and the DMSO-normalized antiproliferation ([2]; log10[compound] (M) -5.19897) was 7.875 and 6.856 and 8.909 and 8.0101. For the same molecule, the DMSO-normalized antiproliferation ([2]; log10[compound] (M) -5.69897) was 78.4433 and 69.3624 and 75.8082 and 79.7492, the DMSO-normalized antiproliferation ([2]; log10[compound] (M) -6.19897) was 113.01 and 109.862 and 96.0186 and 107.676 and the DMSO-normalized antiproliferation ([2]; log10[compound] (M) -6.69897) was 108.532 and 100.339 and 100.126 and 107.64. For the same molecule, the DMSO-normalized antiproliferation ([2]; log10[compound] (M) -7.19897) was 112.463 and 103.538 and 107.565 and 99.0951, the DMSO-normalized antiproliferation ([2]; log10[compound] (M) -7.69897) was 105.646 and 110.739 and 108.339 and 103.433 and the DMSO-normalized antiproliferation ([2]; log10[compound] (M) -8.19897) was 104.397 and 99.4398 and 102.394 and 104.585. For the same molecule, the DMSO-normalized antiproliferation ([2]; log10[compound] (M) -8.69897) was 100.586 and 98.6181 and 103.288 and 91.8912, the DMSO-normalized antiproliferation ([2]; log10[compound] (M) -9.19897) was 97.4681 and 95.2333 and 95.4033 and 78.5397 and the “Antiproliferation (relative growth)” value ([3]; Time 0 days) was 1.033 and 1 and 1.041 and 1.01 and 1.018 and 1.028 and 1.023 and 0.847. For the same molecule, the “Antiproliferation (relative growth)” value ([3]; Time 3 days) was 5.323 and 5.646 and 6.274 and 5.9 and 5.4745 and 5.572 and 6.329 and 5.374, the “Antiproliferation (relative growth)” value ([3]; Time 5 days) was 8.718 and 8.673 and 8.208 and 9.16 and 8.872 and 9.224 and 8.694 and 9.906 and the “Antiproliferation (relative growth)” value ([3]; Time 7 days) was 8.087 and 8.192 and 8.728 and 8.891 and 8.43 and 7.949 and 9.536 and 9.221. The “Antiproliferative effects upon EWS/FLI degradation” value ([3]; longer time-points) was “modest antiproliferative effects”, the “FKBP12F36V-EWS/FLI degradation, immunoblot” value (FKBP12^F36V-EWS/FLI; EWS502 FKBP12F36V-EWS/FLI, EWS/FLI-/- cells) was “marginal degradation” and the “NKX2-2 protein levels, immunoblot” value (FKBP12^F36V-EWS/FLI; relative to dTAGV-1) was “limited changes”.
